The test system of test [1] is Nippostrongylus brasiliensis. Briefly: Nippostrongylus brasiliensis (NIPOBR) assay, acetylcholine esterase readout. Conditions: 10 ppm (10 μg/ml), adult worms, read-out: activity (reduction of AChE compared to negative control). The method, then: Adult Nippostrongylus brasiliensis were washed with saline buffer containing 100 U/ml penicillin, 0.1 mg/ml streptomycin and 2.5 μg/ml amphotericin B. Test compounds were dissolved in DMSO and worms were incubated in medium in a final concentration of 10 μg/ml (10 ppm). An aliquot of the medium was used to determine the acetylcholine esterase activity in comparison to a negative control. The principle of measuring acetylcholine esterase as readout for anthelmintic activity was described in Rapson et al (1986) and Rapson et al (1987).

Test [2] concerns Meloidogyne incognita. Briefly: Meloidogyne incognita (MELGIN) gall formation assay. The test is classed as in vivo. The note with it: 336 h, read-out: nematicidal activity (percentage of gall formation). As for the experimental part: Solvent: 125.0 parts by weight of acetone
To produce a suitable preparation of active compound, 1 part by weight of active compound is mixed with the stated amount of solvent, and the concentrate is diluted with water to the desired concentration.
Vessels are filled with sand, a solution of the active ingredient, a suspension containing eggs and larvae of the southern root-knot nematode (Meloidogyne incognita) and salad seeds. The salad seeds germinate and the seedlings grow. Galls develop in the roots.
After 14 days the nematicidal activity is determined on the basis of the percentage of gall formation. 100% means no galls were found and 0% means the number of galls found on the roots of the treated plants was equal to that in untreated control plants.

The subject of test [3] is Haemonchus contortus. As to the kind of experiment: Haemonchus contortus (HAEMCO) larval mortality assay. The note with it: 120 h; for mortality at 20 ppm: application rate 20 ppm, after 5 days, read-out: activity (percentage of larval mortality). In short, it runs like this:
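Approximately 40 larvae per tube exposed to compound in Ringer's solution, diluted from a DMSO concentrate. Percent larval mortality recorded after 5 days; 100% means all larvae killed.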

In test [4] the test system is Cooperia curticei. As to the kind of experiment: Cooperia curticei (COOPCU) larval mortality assay. The note with it: 120 h, application rate 20 ppm, after 5 days, read-out: activity (percentage of larval mortality). In short, it runs like this: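 About 40 larvae were placed in compound solution: a DMSO stock (10 mg in 0.5 ml) diluted with Ringer's solution to the test concentration. Percent larval mortality was recorded after 5 days; 100% efficacy means all killed, 0% none.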

For test [5], the system named is Dirofilaria immitis microfilariae. Briefly: microbe, parasite or virus in culture. The note with it: 72 h, read-out: EC50 (reduction of motility).

Some results are limits rather than exact numbers.

Usually mortality stands for the share of the test organisms that died. As usually defined, the EC50 is the concentration at which the effect is half-maximal.

Take `O=C(NCC(F)(F)c1ccc(-n2cc(C(F)(F)F)cn2)cc1Cl)c1cccnc1C(F)(F)F` [Example 1-89]: the inhibition at 10 ppm in test [1] was at least 60%. Further, the pest or weed control at 20 ppm in test [2] is 100%. In addition, the mortality at 20 ppm in test [3] and in test [4] was 100% each time. In addition, the 50% effective concentration (EC50) in test [5] was below 5 µg/mL.
As for `O=C(NCC(F)(F)c1ccc(-c2ccc(F)nc2)cc1Cl)c1ccccc1C(F)(F)F` [Example 1-93, N-[2-[2-chloro-4-(6-fluoro-3-pyridyl)phenyl]-2,2-difluoro-ethyl]-2-(trifluoromethyl)benzamide], in test [1], the inhibition at 10 ppm was at least 60%. The pest or weed control at 20 ppm in test [2] stood at 100%. For the same compound, the mortality at 20 ppm in test [3] and in test [4] was 100% throughout. Further, the Emax at 0.8 ppm in test [3] (comparative test, 0.8 ppm, 5 dat, read-out: % Efficacy) came out at 100%. Besides, the Emax at 4 ppm in test [3] (comparative test, 4 ppm, 5 dat, read-out: % Efficacy) came out at 100%. In addition, the Emax at 20 ppm in test [3] (comparative test, 20 ppm, 5 dat, read-out: % Efficacy) turned out to be 100%. For the same compound, the EC50 in test [5] is below 5 µg/mL.
